Columns and labels:
brain cancer = conditions: cited from earlier work
[1] = whole human blood; cited from earlier work
[2] = murine vs human blood; cited from earlier work
human serum albumin [3] = molecular target: T1, human serum albumin (Homo sapiens, UniProt P02768)
Text: Salus™ Drug Combinatorial Agents were identified using the CADEX knowledge base.

[4] = system: human MDA-MB-435S breast carcinoma cell line; assay: Cytotoxicity for breast cancer cells (MDA-MB-435S), XTT; format: cell-based; conditions: for ability to kill breast cancer cells in the presence of Salus (301): FIGS. 9-13, with vs without Salus agent
Protocol: To further validate the concept in vitro studies using human breast cell carcinoma line and clinically approved blood concentrations of both clofibrate (301) and 10-hydroxycamptothecin were performed. FIG. 9 graphs the results GI 50 below. […] Additionally at clinically approved concentrations of both drugs in the presence of blood concentrations of human serum albumin, without Salus, approximately 33% of the cells were surviving at the end of the test vs. approximately 2%.
(§1) We have decided to use the human MRC-5 lung fibroblast cell line to test IC50 of 10-hydroxycamptothecin (10-HC) in the absence and presence of Salus™ 301. The ED50 values were determined with human MDA-MB-435S breast carcinoma cell line.
Cytotoxicity of DRUG for Breast Cancer Cells (MDA-MB-435S)
• 1. Count number of cells in flask. The final concentration of cells in each well should be between 5000-40000 cells/well (100,000-800,000 cells/ml). Dilute cells to proper concentration using Leibovitz's L-15 supplemented with 10% FBS and 0.1% insulin. Add 100 μl of cells into the microplate using repeating pipette. Be sure to vortex tube before adding to plate. Allow plate to incubate for 24 hours at 37° C. (Note: wells A1-H1, A1-H11 will contain only medium for evaporation purposes. Well A2 will contain no cells, only medium and will be used in experiment.) • Medium: Leibovitz's L-15 medium. • 2. Albumin: • Make 60 mg/ml in HSA (900 mg HSA+13.3 ml medium). Use Sigma HSA A-8763 • Make 5 ml of 60 mg/ml HSA with 2 mM 301 (2.33 mg 301 for 5.4 ml HSA). • Make 1 ml of 2 mM 301 in medium (0.53 mg in 1.23 ml medium). Dilute 200 μl in 200 μl medium to make 1 mM 301. • Make DRUG stock in DMSO Stock molarity=1000× conc. of highest test sample (ex. if 2 μM is needed, then stock needs to be 2 mM.) This will vary with each drug based on dosage of drug. For Cancer Cells, the highest concentration should be 1-2 times greater than the dosage for the drug. • 3. Make the test concentrations in advance of testing (5-24 hours prior to testing): The test concentrations will be made at double the concentration, 100 μl will be added into the 100 μl of the cells, making the final concentrations the same as those shown on the microplate chart. Change medium in plate (using the L-15 supplemented with 10% FBS and 0.1% insulin prior to loading test concentrations. • 100% cells: 100 μl of medium • medium: 100 μl of medium • 0.5 mM 301: add 100 μl of 1 mM 301 made in medium • 0.5 mM 301 with HSA: add 100 μl of 1 mM 301 with 30 mg/ml HSA • 1 mM 301: add 100 μl of 2 mM 301 made in medium • 1 mM 301 with HSA: add 100 μl of 2 mM 301 with 30 mg/ml HSA • 30 mg/ml HSA: add 100 μl of 60 mg/ml HSA made in medium (2 wells) • Dosage of DRUG: make a 1:500 dilution, using medium as the diluent. Make 2-fold serial dilutions into 300 μl of medium (600 μl total volume). Be sure to make dilutions before adding into wells. • 30×HSA & Dosage DRUG: Follow same serial dilution procedure as above with the DRUG, but the diluent should be medium +60 mg/ml HSA • 30×HSA, 0.5 mM 301 & DRUG: Follow same serial dilution procedure as above with the DRUG, but the diluent should be medium +60 mg/ml HSA with 1 mM 301 • 30×HSA, 1 mM 301 & 2 μM DRUG: Follow same serial dilution procedure as above with the DRUG, but the diluent should be medium +60 mg/ml HSA with 2 mM 301. • Allow these to incubate at 37° C. overnight. After the microplate has been incubating for 24 hours, add the above test concentrations into the appropriate well (see Chart for microplate information). Allow plate to incubate an additional 48 hours. After 48 Hours: • 4. Under sterile hood, reconstitute the XTT vial with 5 ml of medium. • 5. Remove all liquid from wells. Wash with medium, remove, then fill wells with 200 μl of fresh medium. • 6. Add 40 μl of XTT to all wells. • 7. Allow wells to incubate 2 hours. • 8. Read the plate in the microplate reader using a 655 nm reading as a reference wavelength. The read at 450 nm. Subtract the 655 nm reading from the 450 reading. […]

[5] = system: human MRC-5 lung fibroblast cell line; assay: IC50 in human MRC-5 lung fibroblast cell line (in vitro toxicity); format: cell-based; conditions: best case scenario
Text: Therapeutic index is defined as the ratio of the median lethal dose (LD50) to the median effective dose (ED50). […] While animal tests are at best only about 65 percent predictive of human acute toxicity, a combination of four cell tests can determine of a substance is dangerous to humans with better than 80 percent precision.
as §1

human serum albumin [6] = molecular target: T1, human serum albumin; conditions: carboxylate vs lactone form; cited from earlier work
[7] = system: human cancer xenografts lines; conditions: immunodeficient (nude) mice; cited from earlier work
human serum albumin [8] = molecular target: T1, human serum albumin; assay: X-ray structure of human serum albumin complexes (binding site); conditions: X-ray crystallography
human serum albumin [9] = molecular target: T1, human serum albumin; conditions: Topotecan alone, comparison for Camptothecin with Salus agent; cited from earlier work

T1 sequence (P02768 25-609): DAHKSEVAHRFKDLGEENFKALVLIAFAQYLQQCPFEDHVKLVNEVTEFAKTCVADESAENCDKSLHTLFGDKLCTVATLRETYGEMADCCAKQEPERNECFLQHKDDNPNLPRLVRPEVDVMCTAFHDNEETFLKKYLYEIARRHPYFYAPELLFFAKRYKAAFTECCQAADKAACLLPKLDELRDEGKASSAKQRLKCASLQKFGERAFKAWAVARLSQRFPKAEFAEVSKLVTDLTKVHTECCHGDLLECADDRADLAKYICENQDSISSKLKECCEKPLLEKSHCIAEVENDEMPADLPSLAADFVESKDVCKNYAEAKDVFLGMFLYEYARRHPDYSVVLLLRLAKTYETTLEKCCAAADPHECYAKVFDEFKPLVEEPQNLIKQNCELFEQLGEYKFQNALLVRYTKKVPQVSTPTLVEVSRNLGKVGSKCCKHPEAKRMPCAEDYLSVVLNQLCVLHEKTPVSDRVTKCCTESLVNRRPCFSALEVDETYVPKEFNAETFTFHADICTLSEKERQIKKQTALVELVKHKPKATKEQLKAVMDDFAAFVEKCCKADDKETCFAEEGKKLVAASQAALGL

For `CC[C@@]1(O)C(=O)OCc2c1cc1n(c2=O)Cc2cc3c(N)cccc3nc2-1` [9-aminocamptothecin], the efficacy of therapy (brain cancer; 99 brain cancer patients, intravenous) is listed as “grossly ineffective”, the “drug in the carboxylate form” value (brain cancer; patients treated intravenously, stated as likelihood) is listed as 99.5% and the “drug remaining in the lactone form at equilibrium” value (“drug remaining in the lactone form” for short) [1] is listed as 0.5%. The “lactone levels in murine blood relative to human blood” value [2] was “approximately 100 fold”.
With `CC[C@@]1(O)C(=O)OCc2c1cc1n(c2=O)Cc2cc3c([N+](=O)[O-])cccc3nc2-1` [9-nitro-Camptothecin] the “increase of active lactone form with the selected Salus agent” value (human serum albumin [3]) was “Equally dramatic results”.
With `CC[C@@]1(O)C(=O)OCc2c1cc1n(c2=O)Cc2cc3cc(O)ccc3nc2-1` [10-HC, 10-hydroxycamptothecin] the “ability to kill breast cancer cells in the presence of Salus (301)” value (“ability to kill breast cancer cells” for short) [4] was “improvement”, the “cells surviving at the end of the test” value ([4]; with Salus (clofibrate, 301), clinically approved concentrations of both drugs, blood concentrations of human serum albumin) was “approximately 2%” and the “improvement in the GI 50 values” ([4]; with clofibrate (301) vs without, blood concentrations of human serum albumin) was “approximately 16 fold”. The “cells surviving at the end of the test” value ([4]; without Salus, clinically approved concentration, blood concentrations of human serum albumin) was “approximately 33%”, the IC50 ([5]; with 0.5 mM 301) was 6 µM and the IC50 ([5]; with 1.0 mM 301) was 3.3 µM. For the same compound, the IC50 ([5]; without 301) was 6.78 µM and the “increase of active lactone form with the selected Salus agent” value (human serum albumin [3]) was “Equally dramatic results”.
In the case of `CC[C@@]1(O)C(=O)OCc2c1cc1n(c2=O)Cc2cc3ccccc3nc2-1` [Camptothecin], the “enhancement in affinity for HSA of carboxylate form over lactone form” value (human serum albumin [6]) is given as 150 fold, the “drug remaining in the lactone form” value [1] is given as 5.3% and the “number of human cancer xenografts lines in which effective” value [7] is given as “more than 13”. For the same compound, the “binding location on human serum albumin” value (human serum albumin [8]) was “distinct pocket within IB subdomain”.
For `COc1cccc2c1C(=O)c1c(O)c3c(c(O)c1C2=O)C[C@@](O)(C(=O)CO)C[C@@H]3O[C@H]1C[C@H](N)[C@H](O)[C@H](C)O1` [Doxorubicin], the “ability to kill breast cancer cells” value [4] was “improvement”.
With `COc1cccc2c1C(=O)c1c(O)c3c(c(O)c1C2=O)C[C@@](O)(C(=O)CO)C[C@@H]3O[C@H]1C[C@H](N)[C@@H](O)[C@H](C)O1` [Epirubicin] the “ability to kill breast cancer cells” value [4] was “improvement”.
In the case of `CCc1c2c(nc3ccc(O)cc13)-c1cc3c(c(=O)n1C2)COC(=O)[C@]3(O)CC` [SN-38], the “drug remaining in the lactone form” value [1] is listed as 19.5%.
With `COc1cc([C@@H]2c3cc4c(cc3[C@@H](O[C@@H]3O[C@@H]5CO[C@@H](c6cccs6)O[C@H]5[C@H](O)[C@H]3O)[C@H]3COC(=O)[C@H]23)OCO4)cc(OC)c1O` [Teniposide] the “ability to kill breast cancer cells” value [4] was “improvement”.
In the case of `CC[C@@]1(O)C(=O)OCc2c1cc1n(c2=O)Cc2cc3c(CN(C)C)c(O)ccc3nc2-1` [Topotecan], the “drug remaining in the lactone form” value [1] is listed as 11.9%, the “ability to kill breast cancer cells” value [4] is listed as “improvement” and the “level of active lactone form (comparison value)” value (human serum albumin [9]) is listed as 12%.
